# Reference: patent EP2650000A1, “Utilization of copper complexes involving 2-phenyl-3-hydroxy-4(1H)-quinolinone and 1,10-phenanthroline derivatives for the preparation of drugs for the treatment of tumour diseases” (Univerzita Palackeho, priority 2012, dated 2013)
# How the values were obtained:
# Assay type in all cases: cell-based
# [1] = tested on: human lung adenocarcinoma cell line (A549); assay: MTT assay, in vitro anticancer activity, A549; details: A549 cells, 24 hours incubation, read-out: inhibition concentrations IC50
# Description: (§1) The in vitro anticancer activity of the prepared complexes listed as the examples below was determined by the MTT assay. The method is based on the ability of metabolic-active cells to reduce (by mitochondrial dehydrogenases) the yellow tetrazolium dye (3-(4,5-dimethylthiazol-2-yl)-2,5-diphenyltetrazolium bromide (MTT)) to the blue formazane end-product. Because the reduction proceeds only in the living cells, the cytotoxicity of various compounds can be determined using this process. The water-insoluble formazane is quantified after dissolving in dimethyl sulfoxide (DMSO) with the solution of ammonia on a spectrophotometer (ELISA reader). The in vitro anticancer activity testing was performed on the following human cancer cell lines: lung adenocarcinoma (A549), cervix epitheloid carcinoma (HeLa), malignant melanoma (G361), ovarian carcinoma (A2780), cisplatin-resistant ovarian carcinoma (A2780R) and prostate carcinoma (LNCaP). The cell lines were maintained in plastic vessels in the DMEM medium (5 g/l glucose, 2 mM glutamine, 100 U/mL penicillin, 100 µg/mL streptomycin, 10% foetal calf serum and sodium bicarbonate) for cell cultures. The 80 µL of cell suspensions (ca. 1.25 × 10^5 cells per mL) were pipetted onto 96-well plastic microtitration plates. These were further pre-incubated at 37 °C in the CO2 atmosphere for 24 hours. The tested copper complexes and cisplatin, used as positive and therapeutic standard, were dissolved in N,N'-dimetylformamide in the concentrations up to 50 mM which served as stock solutions. For the experiment, the stock solutions were diluted 1000 x in the incubation medium (maximum concentration of 50.0 µM). After removal of the cultivation media, the mixtures of appropriate concentration were added to the cancer cells for the incubation period of 24 hours. The MTT analysis was performed spectrophotometrically (TECAN, Schoeller Instruments LLC) at 540 nm.
# (§2) The concentrations of the tested complexes (µM) toxic for 50% of cancer cells (inhibition concentration IC50) were calculated from the dose-response curves.
# The determination of in vitro anticancer activity of the studied compounds 1-6 and cisplatin against human lung adenocarcinoma cell line (A549) was performed by the MTT assay.
# [2] = tested on: human cisplatin-resistant ovarian carcinoma cell line (A2780R); assay: MTT assay, in vitro anticancer activity, A2780R; details: A2780R cells, 24 hours incubation, read-out: inhibition concentrations IC50
# Description: as §1, §2
# The determination of in vitro anticancer activity of the studied compounds 1-6 and cisplatin against human cisplatin-resistant ovarian carcinoma cell line (A2780R) was performed by the MTT assay.
# [3] = tested on: human cervix epitheloid carcinoma cell line (HeLa); assay: MTT assay, in vitro anticancer activity, HeLa; details: HeLa cells, 24 hours incubation, read-out: inhibition concentrations IC50
# Description: as §1, §2
# The determination of in vitro anticancer activity of the studied compounds 1-6 and cisplatin against human cervix epitheloid carcinoma cell line (HeLa) was performed by the MTT assay.
# [4] = tested on: human ovarian carcinoma cell line (A2780); assay: MTT assay, in vitro anticancer activity, A2780; details: A2780 cells, 24 hours incubation, read-out: inhibition concentrations IC50
# Description: as §1, §2
# The determination of in vitro anticancer activity of the studied compounds 1-6 and cisplatin against human ovarian carcinoma cell line (A2780) was performed by the MTT assay.
# [5] = tested on: human malignant melanoma cancer cell line (G361); assay: MTT assay, in vitro anticancer activity, G361; details: G361 cells, 24 hours incubation, read-out: inhibition concentrations IC50
# Description: as §1, with “The 80 µL of cell suspensions (ca. 1.25 × 10^5 cells per mL) were pipetted onto 96-well plastic microtitration plates.” left out
# [6] = tested on: human prostate carcinoma cell line (LNCaP); assay: MTT assay, in vitro anticancer activity, LNCaP; details: LNCaP cells, 24 hours incubation, read-out: inhibition concentrations IC50
# Description: as §1, §2
# The determination of in vitro anticancer activity of the studied compounds 1-6 and cisplatin against human prostate carcinoma cell line (LNCaP) was performed by the MTT assay.
Structure (SMILES),IC50 [1],IC50 [2],IC50 [3],IC50 [4],IC50 [5],IC50 [6]
"Cc1cc2cccnc2c2ncccc12.O=[N+]([O-])[O-].O=c1c([O-])c(-c2ccccc2)[nH]c2ccccc12.[Cu+2] [complex 2, (2-phenyl-4-oxo-1,4-dihydroquinolin-3-olato-κ^2O^3:O^4)(5-methyl-1,10-phenanthroline-κ^2N^1:N^10)copper(II) nitrate monohydrate]",2.5 ± 0.6 µM,0.78 ± 0.07 µM,2.6 ± 0.4 µM,0.38 ± 0.03 µM,0.53 ± 0.22 µM,2.1 ± 0.6 µM
"O=[N+]([O-])[O-].O=c1c([O-])c(-c2ccccc2)[nH]c2ccccc12.[Cu+2].c1cnc2c(c1)ccc1cccnc12 [complex 1, (2-phenyl-4-oxo-1,4-dihydroquinolin-3-olato-κ^2O^3:O^4)(1,10-phenanthroline-κ^2N^1:N^10)copper(II) nitrate monohydrate]",2.5 ± 0.4 µM,0.83 ± 0.3 µM,2.9 ± 0.3 µM,0.65 ± 0.28 µM,0.82 ± 0.15 µM,2.4 ± 0.6 µM
"O=[N+]([O-])[O-].O=c1c([O-])c(-c2ccccc2)[nH]c2ccccc12.[Cu+2].c1ccc(-c2ccnc3c2ccc2c(-c4ccccc4)ccnc23)cc1 [complex 3, (2-phenyl-4-oxo-1,4-dihydroquinolin-3-olato-κ^2O^3:O^4)(4,7-diphenyl-1,10-phenanthroline-κ^2N^1:N^10)copper(II) nitrate monohydrate]",1.7 ± 0.3 µM,0.73 ± 0.09 µM,1 ± 0.2 µM,0.66 ± 0.07 µM,0.96 ± 0.03 µM,0.74 ± 0.21 µM
"N.N.[Cl][Pt][Cl] [cisplatin, cis-diammine-dichlorido platinum(II) complex, reference compound]",25.8 ± 7.1 µM,27 ± 4.6 µM,10 ± 2.6 µM,12 ± 0.8 µM,3.4 ± 0.1 µM,3.8 ± 1.5 µM
"F[B-](F)(F)F.O=c1c([O-])c(-c2ccccc2)[nH]c2ccccc12.[Cu+2].c1ccc(-c2ccnc3c2ccc2c(-c4ccccc4)ccnc23)cc1 [complex 6, (2-phenyl-4-oxo-1,4-dihydroquinolin-3-olato-κ^2O^3:O^4) (4,7-diphenyl-1,10-phenanthroline-κ^2N^1:N^10) copper(II) tetrafluoroborate]",1.3 ± 0.4 µM,0.7 ± 0.2 µM,1.3 ± 0.4 µM,0.57 ± 0.11 µM,0.72 ± 0.06 µM,0.62 ± 0.08 µM
"F[B-](F)(F)F.O=c1c([O-])c(-c2ccccc2)[nH]c2ccccc12.[Cu+2].c1cnc2c(c1)ccc1cccnc12 [complex 4, (2-phenyl-4-oxo-1,4-dihydroquinolin-3-olato-κ^2O^3:O^4) (1,10-phenanthroline-κ^2N^1:N^10)copper(II) tetrafluoroborate]",3.9 ± 1.2 µM,1.7 ± 0.6 µM,2.7 ± 0.6 µM,0.52 ± 0.1 µM,0.64 ± 0.2 µM,1.9 ± 0.6 µM
"Cc1cc2cccnc2c2ncccc12.F[B-](F)(F)F.O=c1c([O-])c(-c2ccccc2)[nH]c2ccccc12.[Cu+2] [complex 5, (2-phenyl-4-oxo-1,4-dihydroquinolin-3-olato-K^2O^3:O^4)(5-methyl-1,10-phenanthroline-κ^2N^1:N^10)copper(II) tetrafluoroborate monohydrate]",2.5 ± 0.6 µM,0.56 ± 0.15 µM,2.4 ± 1 µM,0.36 ± 0.05 µM,0.53 ± 0.09 µM,1.5 ± 0.6 µM
